# What was measured:
# HUVECs = assay: Transcellular transport of horse radish peroxidase (HRP) across a cell monolayer on filter; format: cell-based, human
# Procedure: Transport of horse radish peroxidase (HRP) across a cellular membrane was measured using the apparatus shown schematically in FIG. 4, with the addition of biovectors (BVS1 etc). The apparatus comprises upper and lower compartments (1, 2 respectively) separated by a filter 3 on which the cells 4 are grown. HRP and biovectors are added to the medium in the upper compartment 1, and HRP is assayed in the lower compartment 2.
# Transcellular transport was determined as above for the HUVECs studies. […]
# [1] = system: receptor located in human umbilical vein endothelial cells (HUVECS); assay: Interaction of designer peptides with FPE-labelled human cells possessing membrane receptor (fluorescence); format: binding
# Source text: (§1) The following Examples illustrate the behaviour of various peptides and other molecules that promote transcellular transport of therapeutic molecules etc. These studies make use of techniques that show the interactions of molecules with receptors and cell membranes. […] The underlying theory and application of this technique is outlined in: • Wall, J., Ayoub, F. & O'Shea. P. (1995) J. Cell Sci. 108, 2673–2682 • Cladera, J. and O'Shea, P. (1998) Biophys. J. 74, 2434–2442 • Cladera, J., Martin, I., Ruysschaert, J. M. and O'Shea, P. (1999) J. Biol. Chem. 274, 29951–29959 the teaching of all of which is incorporated herein by reference.
# Human umbilical endothelial cells were labelled with FPE and challenged with the indicated amounts of BVS1 peptides. […] Fluorescence was recorded at 518 nm after excitation at 490 nm.
# Two separate experiments are shown and offset in the time dimension for clarity. Peptides were added as indicated by the arrows. The BVS1 peptide was added in both experiments. In the second trace, however, addition of BVS1 was preceded by the addition of 300 nM IL-8.
# [2] = system: receptor isolated from the HUVECS plasma membrane (albumin receptor protein); assay: Interaction with purified isolated receptor reconstituted into FPE-labelled artificial membranes; format: binding, human
# Source text: as §1
# At the arrows, 5 μM BVS1 was added. Two separate experiments are shown and offset in the time dimension for clarity.
# Caco2 cells = assay: Transcellular transport of HRP across monolayers of Caco2 cells; format: cell-based; conditions: Caco2 monolayer, following treatment with 5 μM BVS1 (absence of BVS1: ca 0.001)
# Procedure: Caco2 cells were cultured (passage 17–30) with standard methods and used at ca 21 days. Cells were plated at a density of ca. […] on Transwell® filters (2–4 μm, mean pore size).
# The viability of cells for transport was assessed on the basis of the transcellular electrical resistance and values […] were assessed as viable.
# Transcellular transport was determined as above for the HUVECs studies. In the absence of BVS1 transcellular transport was determined to be ca 0.001 nM min^−1.
# [3] = +5 μM biovector, over baseline 0.003 nM/min^−1
substance,measurement,setting,value
AGIGALFLGFLGAAG [BVS16],Facilitated transport,HUVECs; [3],9 X Fold
AVGIGALFLGFLGAAG [BVS1],binding to receptor (FPE fluorescence),[1]; HUVECS labelled with FPE,clearly binds to a receptor
same,binding to receptor after prior addition of IL-8,[1]; addition of BVS1 preceded by 300 nM IL-8,unable to bind
same,Facilitated transport,HUVECs; +5 μM PSNU then +5 μM BVS1,3/0
same,Facilitated transport,HUVECs; [3],15 X Fold
same,binding to reconstituted isolated receptor (FPE fluorescence increase),[2]; 5 μM BVS1,clearly binds to a receptor
same,binding to reconstituted isolated receptor after prior addition of human serum albumin,[2]; 5 μM BVS1 preceded by 5 μM human serum albumin,unable to bind
same,transcellular transport,Caco2 cells,0.02 nM/min
GVFVLGFLGFLATAGS [BVS9],Facilitated transport,HUVECs; [3],7 X Fold
GVFVLGLFGFLA [BVS5],Facilitated transport,HUVECs; [3],22 X Fold
interleukin-8 [IL-8],binding of IL-8 to the receptor targeted by BVS1,[1]; 300 nM IL-8,appears to bind
"polysulfonylnaphthylurea [PSNU, reference compound]",Facilitated transport,HUVECs; [3],3 X Fold
same,interaction with reconstituted albumin receptor protein (FPE),[2]; 2 μM PSNU,interactions take place

# Source: patent US7049295B2, “Compounds and use thereof to modify transport across cell membranes” (Biotransys Limited, priority 1999, dated 2006)
